Measurements published in US12331035B2, “Bicyclic compound and use thereof” (SK BIOPHARMACEUTICALS CO., LTD., priority 2019, dated 2025).

Biological target: T1, PRMT5-MEP50 enzyme complex (Homo sapiens, UniProt O14744)
T1 construct: purchased BPS Bioscience (USA) 51045
Assay: In vitro PRMT5 enzyme activity assay (methylation of histone H4 arginine H4R3, ELISA absorbance at 450 nm)
Type: biochemical
Details: S-adenosylmethionine, histone H4 peptide, 2 hours at room temperature, 8 points 10 μM to 0.128 nM
Procedure: Method for Measuring Enzyme Activity
In vitro assay: PRMT5-MEP50 enzyme complex, cofactor S-adenosylmethionine (SAM) and histone H4 peptide were reacted in vitro, and methylation of arginine (H4R3) —which is the third amino acid of histone H4—was measured in order to measure the enzyme activity of PRMT5.
Reagents: PRMT5-MEP50 enzyme complex (Catalog No. 51045), blocking buffer (52100-B), histone methyltransferase reaction buffer 2 (4×HMT assay buffer 2, Catalog No. 52170), and primary antibody (primary antibody 4-3, Catalog No. 52150) were purchased from BPS Bioscience (USA). The histone H4 peptide (1-20 amino acids) was custom made by Komabiotech (Korea) and used. S-adenosylmethionine was purchased from NEB (New England Biolabs, USA, Catalog No. B9003S). Plates for coating histone H4 peptide, washing buffer and color development reagent were purchased from the following vendors: Plate (Immobilizer™-Amino Plate, NUNC, Denmark, Catalog No. 436023), carbonate-bicarbonate buffer (Sigma-Aldrich, USA, Catalog No. C3041), washing buffer (10×TBST, Biosesang, Korea, Catalog No. T2005), TMB ELISA substrate (Abcam, UK, Catalog No. ab210902), horseradish peroxidase (HRP)-conjugated antibody (Abcam, UK, Catalog No. ab6721).
Experimental procedure: The histone H4 peptide was diluted with carbonate-bicarbonate buffer and prepared to 100 μg/mL, and then dispensed onto the plate per 100 μL and reacted at 37° C. for 1 hour. PRMT5-MEP50 enzyme complex and S-adenosylmethionine were diluted with histone methyltransferase reaction buffer to prepare 5 μg/mL and 2 μM, respectively, and then 20 μL of PRMT5-MEP50 enzyme complex and 25 μL of S-adenosylmethionine were dispensed onto the plate prepared above. 5 μL of the compound diluted with 10% dimethyl sulfoxide solution was added thereto and reacted at room temperature for 2 hours (final volume=50 μL). The concentration of the compound was diluted 1:5 from 10 μM until the lowest concentration of 0.128 nM, and 8 points were used for the test. After preparing the primary antibody by diluting 1:2000 with blocking buffer, 100 μL was added to the plate and reacted at room temperature for 1 hour. After preparing horseradish peroxidase-conjugated antibody by diluting 1:10,000 with blocking buffer, 100 μL was added to the plate and reacted at room temperature for 1 hour. 100 μL of TMB substrate was added and reacted for 3 minutes at room temperature, and 100 μL of 1 N sulfuric acid was then added to terminate the reaction. Then, the absorbance at 450 nm was measured to calculate the IC50 value of the compound. (+++: 1 to 100 nM, ++: greater than 100 to 1,000 nM, +: greater than 1,000 to 10,000 nM)

T1 sequence (O14744 2-637 limits assumed): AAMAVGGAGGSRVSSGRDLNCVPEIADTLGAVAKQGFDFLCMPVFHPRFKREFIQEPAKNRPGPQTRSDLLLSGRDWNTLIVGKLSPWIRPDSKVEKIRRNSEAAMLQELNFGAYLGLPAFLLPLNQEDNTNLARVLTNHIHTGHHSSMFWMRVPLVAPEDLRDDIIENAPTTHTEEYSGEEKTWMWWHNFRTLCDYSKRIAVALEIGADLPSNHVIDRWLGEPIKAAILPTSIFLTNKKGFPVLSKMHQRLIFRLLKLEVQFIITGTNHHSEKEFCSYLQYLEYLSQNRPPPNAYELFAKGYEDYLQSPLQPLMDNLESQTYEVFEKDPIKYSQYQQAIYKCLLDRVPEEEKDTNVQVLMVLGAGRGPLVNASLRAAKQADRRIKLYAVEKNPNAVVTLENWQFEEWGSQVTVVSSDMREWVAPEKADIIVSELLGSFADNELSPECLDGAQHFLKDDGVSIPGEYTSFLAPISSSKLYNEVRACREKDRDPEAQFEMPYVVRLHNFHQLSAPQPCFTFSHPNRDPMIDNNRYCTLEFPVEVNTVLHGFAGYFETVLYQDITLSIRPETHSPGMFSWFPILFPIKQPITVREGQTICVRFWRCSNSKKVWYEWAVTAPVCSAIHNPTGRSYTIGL
T1 sequence (Q9BQA1 2-342 partner limits assumed): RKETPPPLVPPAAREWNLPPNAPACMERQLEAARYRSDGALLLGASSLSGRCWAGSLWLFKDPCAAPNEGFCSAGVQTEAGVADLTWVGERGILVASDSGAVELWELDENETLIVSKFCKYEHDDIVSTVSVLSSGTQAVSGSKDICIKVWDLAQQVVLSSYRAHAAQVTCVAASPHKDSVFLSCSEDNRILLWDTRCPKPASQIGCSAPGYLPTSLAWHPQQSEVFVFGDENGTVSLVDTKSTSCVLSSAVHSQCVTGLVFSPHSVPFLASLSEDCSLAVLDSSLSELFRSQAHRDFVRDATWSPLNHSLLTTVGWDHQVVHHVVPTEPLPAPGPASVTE

| SMILES | IC50 |
| --- | --- |
| O=C1c2ccc(N3CC4(COC4)C3)cc2CCN1C[C@H](O)CN1CCc2ccccc2C1 [Example 44, 2-[(2R)-3-(3,4-dihydro-1H-isoquinolin-2-yl)-2-hydroxy-propyl]-6-(2-oxa-6-azaspiro[3.3]heptan-6-yl)-3,4-dihydroisoquinolin-1-one] | 0.001 to 0.1 µM |
| O=C1c2ccc(N3CCOC3=O)cc2CCN1C[C@H](O)CN1CCc2ccccc2C1 [Example 45, 3-[2-[(2R)-3-(3,4-dihydro-1H-isoquinolin-2-yl)-2-hydroxy-propyl]-1-oxo-3,4-dihydroisoquinolin-6-yl]oxazolidin-2-one] | 0.1 to 1 µM |
| O=C1c2ccc(N3CC(CO)C3)cc2CCN1C[C@H](O)CN1CCc2ccccc2C1 [Example 46, 2-[(2R)-3-(3,4-dihydro-1H-isoquinolin-2-yl)-2-hydroxy-propyl]-6-[3-(hydroxymethyl)azetidin-1-yl]-3,4-dihydroisoquinolin-1-one] | 0.1 to 1 µM |
| C[C@H]1CN(c2ccc3c(c2)CCN(C[C@H](O)CN2CCc4ccccc4C2)C3=O)CCO1 [Example 47, 2-[(2R)-3-(3,4-dihydro-1H-isoquinolin-2-yl)-2-hydroxy-propyl]-6-[(2S)-2-methylmorpholin-4-yl]-3,4-dihydroisoquinolin-1-one] | 0.001 to 0.1 µM |
| COC1CCN(c2ccc3c(c2)CCN(C[C@H](O)CN2CCc4ccccc4C2)C3=O)CC1 [Example 48, 2-[(2R)-3-(3,4-dihydro-1H-isoquinolin-2-yl)-2-hydroxy-propyl]-6-(4-methoxy-1-piperidyl)-3,4-dihydroisoquinolin-1-one] | 0.001 to 0.1 µM |
| O=C1c2ccc(N3CCS(=O)(=O)CC3)cc2CCN1C[C@H](O)CN1CCc2ccccc2C1 [Example 49, 2-[(2R)-3-(3,4-dihydro-1H-isoquinolin-2-yl)-2-hydroxy-propyl]-6-(1,1-dioxo-1,4-thiazinan-4-yl)-3,4-dihydroisoquinolin-1-one] | 0.001 to 0.1 µM |
| O=C1c2ccc(NC3CCOC3)cc2CCN1C[C@H](O)CN1CCc2ccccc2C1 (stereo partly drawn) [Example 50, 2-[(2R)-3-(3,4-dihydro-1H-isoquinolin-2-yl)-2-hydroxy-propyl]-6-(tetrahydrofuran-3-ylamino)-3,4-dihydroisoquinolin-1-one] | 0.1 to 1 µM |
| O=C1c2ccc(NC3COC3)cc2CCN1C[C@H](O)CN1CCc2ccccc2C1 [Example 51, 2-[(2R)-3-(3,4-dihydro-1H-isoquinolin-2-yl)-2-hydroxy-propyl]-6-(oxetan-3-ylamino)-3,4-dihydroisoquinolin-1-one] | 0.1 to 1 µM |
| CC(=O)N1CCN(c2ccc3c(c2)CCN(C[C@H](O)CN2CCc4ccccc4C2)C3=O)CC1 [Example 52, 6-(4-acetylpiperazin-1-yl)-2-[(2R)-3-(3,4-dihydro-1H-isoquinolin-2-yl)-2-hydroxy-propyl]-3,4-dihydroisoquinolin-1-one] | 0.1 to 1 µM |
| CC(C)(C)OC(=O)N1CCN(c2ccc3c(c2)CCN(C[C@H](O)CN2CCc4ccccc4C2)C3=O)CC1 [Example 53, tert-butyl 4-[2-[(2R)-3-(3,4-dihydro-1H-isoquinolin-2-yl)-2-hydroxy-propyl]-1-oxo-3,4-dihydroisoquinolin-6-yl]piperazine-1-carboxylate] | 0.001 to 0.1 µM |
| O=C1c2ccc(CN3CCCOCC3)cc2CCN1C[C@H](O)CN1CCc2ccccc2C1 [Example 54, 2-[(2R)-3-(3,4-dihydro-1H-isoquinolin-2-yl)-2-hydroxy-propyl]-6-(1,4-oxazepan-4-ylmethyl)-3,4-dihydroisoquinolin-1-one] | 0.001 to 0.1 µM |
| CN1CCN(c2ccc3c(c2)CCN(C[C@H](O)CN2CCc4ccccc4C2)C3=O)CC1=O [Example 55, 2-[(2R)-3-(3,4-dihydro-1H-isoquinolin-2-yl)-2-hydroxy-propyl]-6-(4-methyl-3-oxo-piperazin-1-yl)-3,4-dihydroisoquinolin-1-one] | 0.001 to 0.1 µM |
| CC(C)(C)OC(=O)N1CC=C(c2ccc3c(c2)CCN(C[C@H](O)CN2CCc4ccccc4C2)C3=O)CC1 [Example 56, tert-butyl 4-[2-[(2R)-3-(3,4-dihydro-1H-isoquinolin-2-yl)-2-hydroxy-propyl]-1-oxo-3,4-dihydroisoquinolin-6-yl]-3,6-dihydro-2H-pyridine-1-carboxylate] | 0.001 to 0.1 µM |
| O=C1c2ccc(C3=CCNCC3)cc2CCN1C[C@H](O)CN1CCc2ccccc2C1 [Example 57, 2-[(2R)-3-(3,4-dihydro-1H-isoquinolin-2-yl)-2-hydroxy-propyl]-6-(1,2,3,6-tetrahydropyridin-4-yl)-3,4-dihydroisoquinolin-1-one] | 0.001 to 0.1 µM |
| O=C1c2ccc(N3CCNCC3)cc2CCN1C[C@H](O)CN1CCc2ccccc2C1 [Example 58, 2-[(2R)-3-(3,4-dihydro-1H-isoquinolin-2-yl)-2-hydroxy-propyl]-6-piperazin-1-yl-3,4-dihydroisoquinolin-1-one] | 0.001 to 0.1 µM |
| CS(=O)(=O)N1CCN(c2ccc3c(c2)CCN(C[C@H](O)CN2CCc4ccccc4C2)C3=O)CC1 [Example 59, 2-[(2R)-3-(3,4-dihydro-1H-isoquinolin-2-yl)-2-hydroxy-propyl]-6-(4-methylsulfonylpiperazin-1-yl)-3,4-dihydroisoquinolin-1-one] | 0.1 to 1 µM |
| COC(=O)N1CCN(c2ccc3c(c2)CCN(C[C@H](O)CN2CCc4ccccc4C2)C3=O)CC1 [Example 60, methyl 4-[2-[(2R)-3-(3,4-dihydro-1H-isoquinolin-2-yl)-2-hydroxy-propyl]-1-oxo-3,4-dihydroisoquinolin-6-yl]piperazine-1-carboxylate] | 0.1 to 1 µM |
| CC(=O)N1CC=C(c2ccc3c(c2)CCN(C[C@H](O)CN2CCc4ccccc4C2)C3=O)CC1 [Example 61, 6-(1-acetyl-3,6-dihydro-2H-pyridin-4-yl)-2-[(2R)-3-(3,4-dihydro-1H-isoquinolin-2-yl)-2-hydroxy-propyl]-3,4-dihydroisoquinolin-1-one] | 0.001 to 0.1 µM |
| O=C1c2ccc(N3CCN(C(=O)C(F)(F)F)CC3)cc2CCN1C[C@H](O)CN1CCc2ccccc2C1 [Example 62, 2-[(2R)-3-(3,4-dihydro-1H-isoquinolin-2-yl)-2-hydroxy-propyl]-6-[4-(2,2,2-trifluoroacetyl)piperazin-1-yl]-3,4-dihydroisoquinolin-1-one] | 0.001 to 0.1 µM |
| CC(C)(C)OC(=O)N1CCC(c2ccc3c(c2)CCN(C[C@H](O)CN2CCc4ccccc4C2)C3=O)CC1 [Example 63, tert-butyl 4-[2-[(2R)-3-(3,4-dihydro-1H-isoquinolin-2-yl)-2-hydroxy-propyl]-1-oxo-3,4-dihydroisoquinolin-6-yl]piperidine-1-carboxylate] | 0.1 to 1 µM |
| CC(C)N1CCN(c2ccc3c(c2)CCN(C[C@H](O)CN2CCc4ccccc4C2)C3=O)CC1 [Example 64, [(2R)-3-(3,4-dihydro-1H-isoquinolin-2-yl)-2-hydroxy-propyl]-6-(4-isopropylpiperazin-1-yl)-3,4-dihydroisoquinolin-1-one] | 0.001 to 0.1 µM |
| CCOC(=O)N1CCN(c2ccc3c(c2)CCN(C[C@H](O)CN2CCc4ccccc4C2)C3=O)CC1 [Example 65, ethyl 4-[2-[(2R)-3-(3,4-dihydro-1H-isoquinolin-2-yl)-2-hydroxy-propyl]-1-oxo-3,4-dihydroisoquinolin-6-yl]piperazine-1-carboxylate] | 1 to 10 µM |
| COC1CCN(Cc2ccc3c(c2)CCN(C[C@H](O)CN2CCc4ccccc4C2)C3=O)CC1 [Example 66, 2-[(2R)-3-(3,4-dihydro-1H-isoquinolin-2-yl)-2-hydroxy-propyl]-6-[(4-methoxy-1-piperidyl)methyl]-3,4-dihydroisoquinolin-1-one] | 0.001 to 0.1 µM |
| CC(=O)N1CCC(c2ccc3c(c2)CCN(C[C@H](O)CN2CCc4ccccc4C2)C3=O)CC1 [Example 67, 6-(1-acetyl-4-piperidyl)-2-[(2R)-3-(3,4-dihydro-1H-isoquinolin-2-yl)-2-hydroxy-propyl]-3,4-dihydroisoquinolin-1-one] | 1 to 10 µM |
| CC(=O)N1CCN(Cc2ccc3c(c2)CCN(C[C@H](O)CN2CCc4ccccc4C2)C3=O)CC1 [Example 68, 6-[(4-acetylpiperazin-1-yl)methyl]-2-[(2R)-3-(3,4-dihydro-1H-isoquinolin-2-yl)-2-hydroxy-propyl]-3,4-dihydroisoquinolin-1-one] | 0.001 to 0.1 µM |
| CCC(=O)N1CCN(c2ccc3c(c2)CCN(C[C@H](O)CN2CCc4ccccc4C2)C3=O)CC1 [Example 69, 2-[(2R)-3-(3,4-dihydro-1H-isoquinolin-2-yl)-2-hydroxy-propyl]-6-(4-propanoylpiperazin-1-yl)-3,4-dihydroisoquinolin-1-one] | 0.1 to 1 µM |
